# Source: PMC7076255, “A Redox-Sensitive Thiol in Wis1 Modulates the Fission Yeast Mitogen-Activated Protein Kinase Response to H2O2 and Is the Target of a Small Molecule” (Molecular and Cellular Biology, 2020)
# Biological target: T1, Wis1 (Schizosaccharomyces pombe, UniProt P33886)
# T1 construct: full length, N-terminal HA3 tag (JJS6, thermal shift) or N-terminal HA and C-terminal His6 tags (JJS7, kinase assay); nmt1 promoter at the chromosomal locus; expressed in S. pombe
# T1 sequence (P33886 1-605): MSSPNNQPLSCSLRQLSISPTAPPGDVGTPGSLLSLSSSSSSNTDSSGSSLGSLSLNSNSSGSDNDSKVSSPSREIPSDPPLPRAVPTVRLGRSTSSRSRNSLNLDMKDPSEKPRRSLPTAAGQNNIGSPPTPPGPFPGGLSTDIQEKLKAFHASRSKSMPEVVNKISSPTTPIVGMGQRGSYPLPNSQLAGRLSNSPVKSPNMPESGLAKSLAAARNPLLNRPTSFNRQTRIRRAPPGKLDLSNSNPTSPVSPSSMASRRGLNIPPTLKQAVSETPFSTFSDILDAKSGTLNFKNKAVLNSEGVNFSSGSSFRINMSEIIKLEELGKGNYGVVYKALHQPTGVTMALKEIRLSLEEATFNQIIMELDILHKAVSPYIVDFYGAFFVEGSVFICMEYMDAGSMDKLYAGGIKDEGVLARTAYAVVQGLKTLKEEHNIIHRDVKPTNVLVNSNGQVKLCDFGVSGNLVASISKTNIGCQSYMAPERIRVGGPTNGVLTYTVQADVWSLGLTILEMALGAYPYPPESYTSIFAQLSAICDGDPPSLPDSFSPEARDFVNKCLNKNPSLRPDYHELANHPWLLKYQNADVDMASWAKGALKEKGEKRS
# Test: thermal shift in crude lysate, Western blot of soluble HA-Wis1
# Assay type: biochemical
structure (smiles),measurement,value
CCOc1cccc(-c2cc(=O)c3ccccc3o2)c1N [INR119],ΔTm at 3 µM,2 °C
